Measurements from patent US10227334B2, “Estrogen receptor modulators and uses thereof” (Genentech, Inc., priority 2013, dated 2019).

Key:
[1] = system: MCF-7 cells; test: Breast cancer cell viability assay (MCF7, CellTiter-Glo); conditions: for MCF7 Viability Assay: % Viability relative to Fulvestrant: 5 days' compound exposure; for IC50: read-out: MCF7 Viability Assay: IC50, 5 days' compound exposure
[2] = biological target: ER-α (Homo sapiens (Human), UniProt P03372); test: Breast cancer cell ER-α In-Cell Western assay (SP1); format: cell-based; conditions: MCF7 cells, 4 hours post compound addition
Method: MCF7 cells were trypsinized and washed twice in Phenol Red Free RPMI containing 5% Charcoal Dextran Stripped serum with 20 mM HEPES and NEAA, then adjusted to a concentration of 200,000 cells per mL with the same medium. Next, 16 μL of the cell suspension (3200 cells) was added to each well of a poly-D-lysine coated 384 well plate, and the cells were incubated at 37° C. over 4 days to allow the cells to adhere and grow. […] At 4 hours post compound addition, the cells were fixed by adding 16 μL of 30% formalin to the 32 μL of cells and compound (10% formalin final concentration) for 20 minutes. Cells were then washed twice with PBS Tween 0.1% and then permeabilized in PBS 0.1% Triton (50 μl/well) for additional 15 minutes. The PBS 0.1% triton was decanted, and the cells were washed: LI-COR blocking buffer (50 μL/well) was added, the plate was spun at 3000 rpm, and then the blocking buffer was decanted. Additional LI-COR blocking buffer (50 μL/well) was added, and the cells were incubated overnight at 4° C. The blocking buffer was decanted, and the cells were incubated overnight at 4° C. with SP1 (Thermo Scientific) anti-ER rabbit monoclonal antibody diluted 1:1000 in LI-COR blocking buffer/0.1% Tween-20. Wells which were treated with blocking buffer with Tween but no antibody were used as a background control. Wells were washed twice with PBS Tween 0.1% to remove free SP1 antibodies, and the cells were incubated at room temp for 60-90 minutes in LI-COR goat anti-rabbit IRDye™ 800CW (1:1000) and DRAQ5 DNA dye (1:10000 of 5 mM stock solution) diluted in LI-COR blocking buffer containing 0.1% Tween-20 and 0.01% SDS. Cells were then washed with 0.1% Tween-20/PBS three times. Plates were scanned on a LI-COR Odyssey infrared imaging system. Integrated intensities in the 800 nm channel and 700 nm channel were measured to determine levels of ER-α and DNA respectively. Percent ER levels were determined as follows: (Integrated intensity 800 nm sample/integrated intensity 700 nm sample)/(Integrated intensity 800 nm untreated cells/integrated intensity 700 nm untreated cells)×100=% ER-α levels.

[3] = system: tamoxifen resistant MCF-7 tumors; test: Breast cancer model: xenograft assay (MCF-7 derivative, tamoxifen resistant); format: in vivo; conditions: female nu/nu mice
Method: Female nu/nu mice (with supplemental 17-β Estradiol pellets; 0.72 mg; 60 day slow release) bearing MCF-7 tumors (mean tumor volume 200 mm^3) were treated with Tamoxifen (citrate) by oral gavage. Tumor volume (length×width^2/2) and body weight were monitored twice weekly. Following a significant anti-tumor response in which tumor volume remained static, evident tumor growth was first observed at approximately 100 days of treatment. At 120 days of treatment, tamoxifen dose was increased. Rapidly growing tumors were deemed tamoxifen resistant and selected for in vivo passage into new host animals. Tumor Fragments (˜100 mm^3/animal) from the tamoxifen resistant tumors were subcutaneously implanted into the right flank of female nu/nu mice (with 17-β Estradiol pellets (0.72 mg; 60 day slow release)). Passaged tumors were maintained under constant Tamoxifen selection, and Tumor volume (length×width^2/2) was monitored weekly. When tumor volume reached ˜150-250 mm^3, animals were randomized into treatment groups (mean tumor volume 200 mm^3) and tamoxifen treatment was terminated (except for a tamoxifen control arm). Animals were treated with Vehicle or Compound daily for 4 weeks. Tumor volume and body weight were monitored twice weekly for the duration of the study. At the conclusion of the treatment period; plasma and tumor samples were taken for pharmacokinetic and pharmacodynamic analyses, respectively.

Chain of ER-α (P03372 whole entry): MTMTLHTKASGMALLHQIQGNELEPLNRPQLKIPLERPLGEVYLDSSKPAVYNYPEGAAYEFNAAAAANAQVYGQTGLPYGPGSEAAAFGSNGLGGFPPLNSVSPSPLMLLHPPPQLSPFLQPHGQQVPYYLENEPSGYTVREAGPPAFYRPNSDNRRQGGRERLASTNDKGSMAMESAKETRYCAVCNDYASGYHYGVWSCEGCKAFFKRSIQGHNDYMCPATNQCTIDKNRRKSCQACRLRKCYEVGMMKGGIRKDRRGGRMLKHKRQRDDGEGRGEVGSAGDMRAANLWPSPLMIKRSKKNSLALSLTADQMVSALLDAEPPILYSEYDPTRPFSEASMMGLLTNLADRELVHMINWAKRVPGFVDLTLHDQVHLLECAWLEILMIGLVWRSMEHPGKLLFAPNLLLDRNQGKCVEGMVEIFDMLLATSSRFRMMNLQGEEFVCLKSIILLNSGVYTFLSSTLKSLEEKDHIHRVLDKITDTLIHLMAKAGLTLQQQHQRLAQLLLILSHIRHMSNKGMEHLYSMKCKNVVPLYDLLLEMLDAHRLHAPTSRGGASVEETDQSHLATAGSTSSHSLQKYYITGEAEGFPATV

Row | Compound | MCF7 Viability Assay: % Viability relative to Fulvestrant [1] [%] | ER-α In-Cell Western Assay (SP1): % ER-α remaining relative to Fulvestrant [2] [%] | Number of Tumors Smaller at t = 27 days than at Start of study (t = 0 days) ([3]; 10 mpk oral dose each day) | Number of Tumors Smaller at t = 27 days than at Start of study (t = 0 days) ([3]; 30 mpk oral dose each day) | Number of Tumors Smaller at t = 27 days than at Start of study (t = 0 days) ([3]; 100 mpk oral dose each day) | IC50 [1] [nM] | IC50 [2] [nM]
1 | CC1=C(c2cccc(O)c2)C(c2ccc(OCCN3CC(C)C3)cc2)Oc2ccc(O)cc21 (racemic) [Example 4, 3-(3-Hydroxyphenyl)-4-methyl-2-(4-(2-(3-methylazetidin-1-yl)ethoxy)phenyl)-2H-chromen-6-ol] | 13 | 14 | – | – | – | – | –
2 | CC1=C(c2cccc(O)c2)[C@H](c2ccc(OCCN3CC(CF)C3)cc2)Oc2ccc(O)cc21 [Example 3, (S)-2-(4-(2-(3-(fluoromethyl)azetidin-1-yl)ethoxy)phenyl)-3-(3-hydroxyphenyl)-4-methyl-2H-chromen-6-ol] | – | – | 0/5 | 2/8 | 5/8 | 0.07 | –
3 | CC1=C(c2cccc(O)c2)C(c2ccc(OCCN3CC(CF)C3)cc2)Oc2ccc(O)cc21 (racemic) [Example 1, (±)-2-(4-(2-(3-(Fluoromethyl)azetidin-1-yl)ethoxy)phenyl)-3-(3-hydroxyphenyl)-4-methyl-2H-chromen-6-ol] | – | – | – | – | – | 0.21 | –
4 | CC1=C(c2cccc(O)c2)C(c2ccc(OCCN3CCC3)cc2)Oc2ccc(O)cc21 (centres unmarked) [2-(4-(2-(azetidin-1-yl)ethoxy)phenyl)-3-(3-hydroxyphenyl)-4-methyl-2H-chromen-6-ol] | 25 | 24 | – | – | – | – | –
5 | CC1=C(c2cccc(O)c2)[C@@H](c2ccc(OCCN3CC(CF)C3)cc2)Oc2ccc(O)cc21 [Example 2, (R)-2-(4-(2-(3-(Fluoromethyl)azetidin-1-yl)ethoxy)phenyl)-3-(3-hydroxyphenyl)-4-methyl-2H-chromen-6-ol] | – | – | – | – | – | 4.3 | –
6 | CC1=C(c2cccc(O)c2)C(c2ccc(OC[C@H](C)N3CCC3)cc2)Oc2ccc(O)cc21 (stereo partly drawn) [2-(4-((S)-2-(azetidin-1-yl)propoxy)phenyl)-3-(3-hydroxyphenyl)-4-methyl-2H-chromen-6-ol] | 30 | 33 | – | – | – | – | –
7 | CC1=C(c2cccc(O)c2)[C@H](c2ccc(OC[C@H](C)N3CC[C@@H](C)C3)cc2)Oc2ccc(O)cc21 [(S)-3-(3-Hydroxyphenyl)-4-methyl-2-(4-((S)-2-((R)-3-methylpyrrolidin-1-yl)propoxy)phenyl)-2H-chromen-6-ol] | 8 | – | 0/8 | 1/8 | 1/8 | 0.13 | 0.11
8 | CC1=C(c2cccc(O)c2)C(c2ccc(OC[C@H](C)N3CC[C@@H](F)C3)cc2)Oc2ccc(O)cc21 (stereo partly drawn) [2-(4-((S)-2-((R)-3-fluoropyrrolidin-1-yl)propoxy)phenyl)-3-(3-hydroxyphenyl)-4-methyl-2H-chromen-6-ol] | 16 | 8 | – | – | – | – | –
